According to article PMC7313537 (PLoS ONE, 2020):

Key:
Experiment in all cases: Broader kinase panel (PerkinElmer)
Assay type in all cases: biochemical
AKT3 = target: T1, AKT3 (Homo sapiens, UniProt Q9Y243); details: 100 nM; read-out: Average Percent Inhibition
T1 construct: purchased In-house HTRF panel (56 kinases) and PerkinElmer (161-kinase panel)
Source text: (§1) […]. […] […].

AXL = target: T2, AXL (Homo sapiens, UniProt P30530); details: 100 nM; read-out: Average Percent Inhibition
T2 construct: purchased In-house HTRF panel (56 kinases) and PerkinElmer (161-kinase panel)
Source text: as §1

Arg = target: T3, Arg (Homo sapiens, UniProt P42684); details: 100 nM; read-out: Average Percent Inhibition
T3 construct: purchased In-house HTRF panel (56 kinases) and PerkinElmer (161-kinase panel)
Source text: as §1

CAMK2 = details: 100 nM
Source text: as §1

CDK2 = CDK2 (Homo sapiens, UniProt P24941); details: 100 nM; read-out: Average Percent Inhibition
Source text: as §1

CDK5/p25 = target: T4, CDK5/p25 (Homo sapiens, UniProt Q00535); details: 100 nM; read-out: Average Percent Inhibition
T4 construct: purchased In-house HTRF panel (56 kinases) and PerkinElmer (161-kinase panel)
Source text: as §1

CK1-gamma 1 = target: T5, CK1-gamma 1 (Homo sapiens, UniProt Q9HCP0); details: 100 nM; read-out: Average Percent Inhibition
T5 construct: purchased In-house HTRF panel (56 kinases) and PerkinElmer (161-kinase panel)
Source text: as §1

CK1d = target: T6, CK1d (Homo sapiens, UniProt P48730); details: 100 nM; read-out: Average Percent Inhibition
T6 construct: purchased In-house HTRF panel (56 kinases) and PerkinElmer (161-kinase panel)
Source text: as §1

CLK2 = target: T7, CLK2 (Homo sapiens, UniProt P49760); details: 100 nM; read-out: Average Percent Inhibition
T7 construct: purchased In-house HTRF panel (56 kinases) and PerkinElmer (161-kinase panel)
Source text: as §1

Casein kinase 1g2 = target: T8, Casein kinase 1g2 (Homo sapiens, UniProt P78368); details: 100 nM; read-out: Average Percent Inhibition
T8 construct: purchased In-house HTRF panel (56 kinases) and PerkinElmer (161-kinase panel)
Source text: as §1

DYRK1B = target: T9, DYRK1B (Homo sapiens, UniProt Q9Y463); details: 100 nM; read-out: Average Percent Inhibition
T9 construct: purchased In-house HTRF panel (56 kinases) and PerkinElmer (161-kinase panel)
Source text: as §1

DYRK4 = target: T10, DYRK4 (Homo sapiens, UniProt Q9NR20); details: 100 nM; read-out: Average Percent Inhibition
T10 construct: purchased In-house HTRF panel (56 kinases) and PerkinElmer (161-kinase panel)
T10 sequence (Q9NR20 whole entry): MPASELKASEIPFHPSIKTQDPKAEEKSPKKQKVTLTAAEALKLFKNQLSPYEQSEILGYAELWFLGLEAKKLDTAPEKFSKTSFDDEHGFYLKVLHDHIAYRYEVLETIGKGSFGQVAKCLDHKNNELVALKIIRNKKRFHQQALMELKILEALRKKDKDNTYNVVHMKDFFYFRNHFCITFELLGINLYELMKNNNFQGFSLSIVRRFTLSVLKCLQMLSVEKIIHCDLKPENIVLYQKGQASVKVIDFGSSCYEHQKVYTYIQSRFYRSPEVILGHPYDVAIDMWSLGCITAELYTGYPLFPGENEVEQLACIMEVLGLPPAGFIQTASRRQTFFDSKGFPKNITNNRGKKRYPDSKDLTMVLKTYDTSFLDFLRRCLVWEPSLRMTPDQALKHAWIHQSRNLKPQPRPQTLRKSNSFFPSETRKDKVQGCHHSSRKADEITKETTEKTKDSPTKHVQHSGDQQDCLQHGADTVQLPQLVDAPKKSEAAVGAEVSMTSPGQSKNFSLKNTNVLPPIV
Source text: as §1

EPHA1 = target: T11, EPHA1 (Homo sapiens, UniProt P21709); details: 100 nM; read-out: Average Percent Inhibition
T11 construct: purchased In-house HTRF panel (56 kinases) and PerkinElmer (161-kinase panel)
Source text: as §1

EPHA4 = target: T12, EPHA4 (Homo sapiens, UniProt P54764); details: 100 nM; read-out: Average Percent Inhibition
T12 construct: purchased In-house HTRF panel (56 kinases) and PerkinElmer (161-kinase panel)
Source text: as §1

EPHB2 = target: T13, EPHB2 (Homo sapiens, UniProt P29323); details: 100 nM; read-out: Average Percent Inhibition
T13 construct: purchased In-house HTRF panel (56 kinases) and PerkinElmer (161-kinase panel)
T13 sequence (P29323 19-1055): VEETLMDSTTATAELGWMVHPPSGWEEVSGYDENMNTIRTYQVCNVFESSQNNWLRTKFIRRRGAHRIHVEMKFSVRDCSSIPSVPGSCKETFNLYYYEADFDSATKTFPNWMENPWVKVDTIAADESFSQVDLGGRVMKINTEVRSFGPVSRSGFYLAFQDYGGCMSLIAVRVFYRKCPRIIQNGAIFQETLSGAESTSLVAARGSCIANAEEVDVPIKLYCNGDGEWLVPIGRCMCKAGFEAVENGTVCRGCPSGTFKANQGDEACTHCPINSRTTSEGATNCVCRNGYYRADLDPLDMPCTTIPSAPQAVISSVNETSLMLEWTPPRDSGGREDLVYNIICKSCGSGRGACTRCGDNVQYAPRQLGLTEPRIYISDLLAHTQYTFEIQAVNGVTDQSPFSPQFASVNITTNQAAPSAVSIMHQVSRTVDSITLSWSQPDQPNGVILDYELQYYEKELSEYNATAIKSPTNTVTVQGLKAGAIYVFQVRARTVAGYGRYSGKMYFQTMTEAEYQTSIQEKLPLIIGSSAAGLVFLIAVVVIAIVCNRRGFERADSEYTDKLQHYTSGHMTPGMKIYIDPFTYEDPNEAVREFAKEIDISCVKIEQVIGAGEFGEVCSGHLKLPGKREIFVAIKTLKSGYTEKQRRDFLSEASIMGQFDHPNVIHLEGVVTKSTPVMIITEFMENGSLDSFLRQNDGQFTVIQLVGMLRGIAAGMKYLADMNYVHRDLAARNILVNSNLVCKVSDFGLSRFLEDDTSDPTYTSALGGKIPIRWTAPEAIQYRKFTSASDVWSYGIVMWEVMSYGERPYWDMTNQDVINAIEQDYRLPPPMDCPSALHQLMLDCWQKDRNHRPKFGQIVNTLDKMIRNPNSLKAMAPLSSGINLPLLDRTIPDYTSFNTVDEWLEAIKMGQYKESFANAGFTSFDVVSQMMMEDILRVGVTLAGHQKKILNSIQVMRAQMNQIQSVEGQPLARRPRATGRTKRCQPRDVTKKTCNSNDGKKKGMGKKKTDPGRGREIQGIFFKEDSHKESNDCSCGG
Source text: as §1

FMS = target: T14, FMS (Homo sapiens, UniProt P07333); details: 100 nM; read-out: Average Percent Inhibition
T14 construct: purchased In-house HTRF panel (56 kinases) and PerkinElmer (161-kinase panel)
Source text: as §1

Flt3(D835Y) = target: T15, Flt3(D835Y) (Homo sapiens, UniProt P36888, D835Y); details: 100 nM; read-out: Average Percent Inhibition
T15 construct: purchased In-house HTRF panel (56 kinases) and PerkinElmer (161-kinase panel)
Source text: as §1

HIPK2 = target: T16, HIPK2 (Homo sapiens, UniProt Q9H2X6); details: 100 nM; read-out: Average Percent Inhibition
T16 construct: purchased In-house HTRF panel (56 kinases) and PerkinElmer (161-kinase panel)
Source text: as §1

IGF1R = IGF1R (Homo sapiens, UniProt P08069); details: 100 nM; read-out: Average Percent Inhibition
Source text: as §1

IKBKE (IKK epsilon) = target: T17, IKBKE (IKK epsilon) (Homo sapiens, UniProt Q14164); details: 100 nM; read-out: Average Percent Inhibition
T17 construct: purchased In-house HTRF panel (56 kinases) and PerkinElmer (161-kinase panel)
Source text: as §1

LOK = LOK (Homo sapiens, UniProt O94804); details: 100 nM; read-out: Average Percent Inhibition
Source text: as §1

MAPKAPK2 = MAPKAPK2 (Homo sapiens, UniProt P49137); details: 100 nM; read-out: Average Percent Inhibition
Source text: as §1

MELK = target: T18, MELK (Homo sapiens, UniProt Q14680); details: 100 nM; read-out: Average Percent Inhibition
T18 construct: purchased In-house HTRF panel (56 kinases) and PerkinElmer (161-kinase panel)
Source text: as §1

MINK = MINK (Homo sapiens, UniProt Q8N4C8); details: 100 nM; read-out: Average Percent Inhibition
Source text: as §1

MST1R = target: T19, MST1R (Homo sapiens, UniProt Q04912); details: 100 nM; read-out: Average Percent Inhibition
T19 construct: purchased In-house HTRF panel (56 kinases) and PerkinElmer (161-kinase panel)
Source text: as §1

MST3 (STK24) = target: T20, MST3 (STK24) (Homo sapiens, UniProt Q9Y6E0); details: 100 nM; read-out: Average Percent Inhibition
T20 construct: purchased In-house HTRF panel (56 kinases) and PerkinElmer (161-kinase panel)
Source text: as §1

NTRK2 (TRKB) = target: T21, NTRK2 (TRKB) (Homo sapiens, UniProt Q16620); details: 100 nM; read-out: Average Percent Inhibition
T21 construct: purchased In-house HTRF panel (56 kinases) and PerkinElmer (161-kinase panel)
T21 sequence (Q16620 32-822): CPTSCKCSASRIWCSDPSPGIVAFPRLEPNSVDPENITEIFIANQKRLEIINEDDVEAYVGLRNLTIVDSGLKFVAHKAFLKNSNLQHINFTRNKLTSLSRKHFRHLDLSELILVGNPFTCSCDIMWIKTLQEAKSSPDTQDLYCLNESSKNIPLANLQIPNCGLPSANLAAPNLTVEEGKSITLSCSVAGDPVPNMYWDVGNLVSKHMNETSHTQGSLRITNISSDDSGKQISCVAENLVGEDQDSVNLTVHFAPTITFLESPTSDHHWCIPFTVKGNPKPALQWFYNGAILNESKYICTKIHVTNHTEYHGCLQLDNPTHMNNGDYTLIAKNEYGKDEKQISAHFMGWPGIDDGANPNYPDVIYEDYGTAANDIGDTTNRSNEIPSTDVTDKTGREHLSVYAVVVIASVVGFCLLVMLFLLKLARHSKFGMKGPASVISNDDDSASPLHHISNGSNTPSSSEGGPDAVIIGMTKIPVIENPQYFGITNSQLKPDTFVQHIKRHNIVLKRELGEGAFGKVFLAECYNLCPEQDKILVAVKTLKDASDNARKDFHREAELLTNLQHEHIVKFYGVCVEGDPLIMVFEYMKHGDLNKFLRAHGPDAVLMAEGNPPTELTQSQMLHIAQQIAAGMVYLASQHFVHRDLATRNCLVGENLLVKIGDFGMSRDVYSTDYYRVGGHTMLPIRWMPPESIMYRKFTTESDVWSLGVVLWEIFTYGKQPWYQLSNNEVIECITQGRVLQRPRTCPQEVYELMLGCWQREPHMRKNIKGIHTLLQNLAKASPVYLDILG
Source text: as §1

PAK5 (PAK7) = target: T22, PAK5 (PAK7) (Homo sapiens, UniProt Q9P286); details: 100 nM; read-out: Average Percent Inhibition
T22 construct: purchased In-house HTRF panel (56 kinases) and PerkinElmer (161-kinase panel)
Source text: as §1

PDGFR BETA = target: T23, PDGFR BETA (Homo sapiens, UniProt P09619); details: 100 nM; read-out: Average Percent Inhibition
T23 construct: purchased In-house HTRF panel (56 kinases) and PerkinElmer (161-kinase panel)
Source text: as §1

PDGFR_alpha = target: T24, PDGFR_alpha (Homo sapiens, UniProt P16234); details: 100 nM; read-out: Average Percent Inhibition
T24 construct: purchased In-house HTRF panel (56 kinases) and PerkinElmer (161-kinase panel)
T24 sequence (P16234 24-1089): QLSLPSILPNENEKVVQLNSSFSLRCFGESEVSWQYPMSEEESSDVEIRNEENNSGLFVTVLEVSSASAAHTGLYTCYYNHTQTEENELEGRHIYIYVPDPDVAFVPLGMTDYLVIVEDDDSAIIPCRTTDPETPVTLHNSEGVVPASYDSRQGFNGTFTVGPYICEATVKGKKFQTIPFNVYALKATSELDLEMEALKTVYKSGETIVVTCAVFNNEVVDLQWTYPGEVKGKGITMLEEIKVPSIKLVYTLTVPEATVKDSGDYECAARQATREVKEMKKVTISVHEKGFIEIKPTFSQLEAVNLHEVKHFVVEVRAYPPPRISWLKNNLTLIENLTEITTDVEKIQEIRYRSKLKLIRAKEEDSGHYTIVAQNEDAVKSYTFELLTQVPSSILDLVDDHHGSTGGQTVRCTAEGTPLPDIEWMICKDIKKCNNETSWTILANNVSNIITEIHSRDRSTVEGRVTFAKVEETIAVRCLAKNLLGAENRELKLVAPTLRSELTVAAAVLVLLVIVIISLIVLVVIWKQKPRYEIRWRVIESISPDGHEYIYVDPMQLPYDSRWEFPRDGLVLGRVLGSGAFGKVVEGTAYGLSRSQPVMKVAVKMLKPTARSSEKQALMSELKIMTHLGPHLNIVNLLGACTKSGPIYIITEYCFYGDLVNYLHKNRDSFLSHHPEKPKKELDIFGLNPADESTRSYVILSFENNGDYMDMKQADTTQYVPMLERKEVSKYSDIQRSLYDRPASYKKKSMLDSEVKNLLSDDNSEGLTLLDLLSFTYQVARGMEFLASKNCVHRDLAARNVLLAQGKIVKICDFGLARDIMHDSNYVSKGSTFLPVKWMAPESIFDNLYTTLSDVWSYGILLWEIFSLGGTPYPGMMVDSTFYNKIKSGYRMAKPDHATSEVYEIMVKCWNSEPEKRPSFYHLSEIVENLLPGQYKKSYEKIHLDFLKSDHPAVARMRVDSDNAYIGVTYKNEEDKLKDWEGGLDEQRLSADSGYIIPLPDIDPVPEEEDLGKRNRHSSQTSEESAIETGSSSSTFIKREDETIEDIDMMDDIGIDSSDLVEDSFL
Source text: as §1

PHKG2 = target: T25, PHKG2 (Homo sapiens, UniProt P15735); details: 100 nM; read-out: Average Percent Inhibition
T25 construct: purchased In-house HTRF panel (56 kinases) and PerkinElmer (161-kinase panel)
Source text: as §1

PKC-alpha = target: T26, PKC-alpha (Homo sapiens, UniProt P17252); details: 100 nM; read-out: Average Percent Inhibition
T26 construct: purchased In-house HTRF panel (56 kinases) and PerkinElmer (161-kinase panel)
Source text: as §1

PKC-epsilon = target: T27, PKC-epsilon (Homo sapiens, UniProt Q02156); details: 100 nM; read-out: Average Percent Inhibition
T27 construct: purchased In-house HTRF panel (56 kinases) and PerkinElmer (161-kinase panel)
Source text: as §1

PKD2 = target: T28, PKD2 (Homo sapiens, UniProt Q9BZL6); details: 100 nM; read-out: Average Percent Inhibition
T28 construct: purchased In-house HTRF panel (56 kinases) and PerkinElmer (161-kinase panel)
Source text: as §1

PKG1-beta = target: T29, PKG1-beta (Homo sapiens, UniProt Q13976); details: 100 nM; read-out: Average Percent Inhibition
T29 construct: purchased In-house HTRF panel (56 kinases) and PerkinElmer (161-kinase panel)
Source text: as §1

PYK2 = target: T30, PYK2 (Homo sapiens, UniProt Q14289); details: 100 nM; read-out: Average Percent Inhibition
T30 construct: purchased In-house HTRF panel (56 kinases) and PerkinElmer (161-kinase panel)
T30 sequence (Q14289 whole entry): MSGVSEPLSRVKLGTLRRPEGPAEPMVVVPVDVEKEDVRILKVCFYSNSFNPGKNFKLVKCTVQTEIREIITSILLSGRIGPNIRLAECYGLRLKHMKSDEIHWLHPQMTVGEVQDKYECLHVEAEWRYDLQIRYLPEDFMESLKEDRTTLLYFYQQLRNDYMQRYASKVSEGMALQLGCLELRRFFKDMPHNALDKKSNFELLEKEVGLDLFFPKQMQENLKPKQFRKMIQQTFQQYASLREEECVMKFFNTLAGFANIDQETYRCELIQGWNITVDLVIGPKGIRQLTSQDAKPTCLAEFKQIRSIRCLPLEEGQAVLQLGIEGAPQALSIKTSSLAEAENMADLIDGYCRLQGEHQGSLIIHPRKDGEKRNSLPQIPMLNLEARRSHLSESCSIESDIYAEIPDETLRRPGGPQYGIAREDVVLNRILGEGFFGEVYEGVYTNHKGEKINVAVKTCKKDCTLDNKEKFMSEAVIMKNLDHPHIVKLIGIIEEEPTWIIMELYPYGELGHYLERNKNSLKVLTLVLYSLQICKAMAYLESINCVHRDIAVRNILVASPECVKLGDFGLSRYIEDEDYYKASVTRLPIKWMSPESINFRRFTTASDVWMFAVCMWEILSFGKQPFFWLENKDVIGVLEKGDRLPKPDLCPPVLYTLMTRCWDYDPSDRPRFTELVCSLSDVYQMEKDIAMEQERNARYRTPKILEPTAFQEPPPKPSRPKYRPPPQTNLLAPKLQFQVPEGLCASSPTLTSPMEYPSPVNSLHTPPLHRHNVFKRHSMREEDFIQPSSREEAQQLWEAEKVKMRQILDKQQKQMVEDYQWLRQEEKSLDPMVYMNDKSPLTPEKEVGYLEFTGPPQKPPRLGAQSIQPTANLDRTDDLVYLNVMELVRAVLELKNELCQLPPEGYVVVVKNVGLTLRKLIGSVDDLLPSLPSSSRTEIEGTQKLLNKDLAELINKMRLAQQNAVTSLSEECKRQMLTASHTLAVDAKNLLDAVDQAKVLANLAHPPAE
Source text: as §1

PhKg1 = target: T31, PhKg1 (Homo sapiens, UniProt Q16816); details: 100 nM; read-out: Average Percent Inhibition
T31 construct: purchased In-house HTRF panel (56 kinases) and PerkinElmer (161-kinase panel)
Source text: as §1

ROS (ROS1) = target: T32, ROS (ROS1) (Homo sapiens, UniProt P08922); details: 100 nM; read-out: Average Percent Inhibition
T32 construct: purchased In-house HTRF panel (56 kinases) and PerkinElmer (161-kinase panel)
Source text: as §1

RSK2 = RSK2 (Homo sapiens, UniProt P51812); details: 100 nM; read-out: Average Percent Inhibition
Source text: as §1

SGK1 = target: T33, SGK1 (Homo sapiens, UniProt O00141); details: 100 nM; read-out: Average Percent Inhibition
T33 construct: purchased In-house HTRF panel (56 kinases) and PerkinElmer (161-kinase panel)
Source text: as §1

SYK = SYK (Homo sapiens, UniProt P43405); details: 100 nM; read-out: Average Percent Inhibition
Source text: as §1

TSSK1 = target: T34, TSSK1 (Homo sapiens, UniProt Q9BXA7); details: 100 nM; read-out: Average Percent Inhibition
T34 construct: purchased In-house HTRF panel (56 kinases) and PerkinElmer (161-kinase panel)
T34 sequence (Q9BXA7 whole entry): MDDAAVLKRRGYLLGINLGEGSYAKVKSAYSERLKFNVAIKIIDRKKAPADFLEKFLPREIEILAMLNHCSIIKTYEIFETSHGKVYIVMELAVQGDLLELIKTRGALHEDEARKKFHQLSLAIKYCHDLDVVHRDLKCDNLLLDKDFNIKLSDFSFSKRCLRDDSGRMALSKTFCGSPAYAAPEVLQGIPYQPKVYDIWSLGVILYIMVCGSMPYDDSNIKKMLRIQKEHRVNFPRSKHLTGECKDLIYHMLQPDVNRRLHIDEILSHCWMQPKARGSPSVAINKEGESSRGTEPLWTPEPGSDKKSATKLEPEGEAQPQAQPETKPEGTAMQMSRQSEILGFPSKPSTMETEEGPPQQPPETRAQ
Source text: as §1

p38-gamma = target: T35, p38-gamma (Homo sapiens, UniProt P53778); details: 100 nM; read-out: Average Percent Inhibition
T35 construct: purchased In-house HTRF panel (56 kinases) and PerkinElmer (161-kinase panel)
Source text: as §1

CCN1C(=O)N(c2c(F)c(OC)cc(OC)c2F)Cc2cnc3[nH]c(CN4CCOCC4)cc3c21 [INCB054828, pemigatinib]
inhibition at 0.1 µM (AKT3): 3%
inhibition at 0.1 µM (AXL): -8%
inhibition at 0.1 µM (Arg): -4%
Average Percent Inhibition (CAMK2): 2%
inhibition at 0.1 µM (CDK2): -2%
inhibition at 0.1 µM (CDK5/p25): -4%
inhibition at 0.1 µM (CK1-gamma 1): -3%
inhibition at 0.1 µM (CK1d): -1%
inhibition at 0.1 µM (CLK2): -3%
inhibition at 0.1 µM (Casein kinase 1g2): -1%
inhibition at 0.1 µM (DYRK1B): 7%
inhibition at 0.1 µM (DYRK4): -4%
inhibition at 0.1 µM (EPHA1): 2%
inhibition at 0.1 µM (EPHA4): 3%
inhibition at 0.1 µM (EPHB2): 3%
inhibition at 0.1 µM (FMS): -10%
inhibition at 0.1 µM (Flt3(D835Y)): 1%
inhibition at 0.1 µM (HIPK2): -1%
inhibition at 0.1 µM (IGF1R): 1%
inhibition at 0.1 µM (IKBKE (IKK epsilon)): -2%
inhibition at 0.1 µM (LOK): -1%
inhibition at 0.1 µM (MAPKAPK2): 0%
inhibition at 0.1 µM (MELK): 2%
inhibition at 0.1 µM (MINK): 2%
inhibition at 0.1 µM (MST1R): 1%
inhibition at 0.1 µM (MST3 (STK24)): 7%
inhibition at 0.1 µM (NTRK2 (TRKB)): 1%
inhibition at 0.1 µM (PAK5 (PAK7)): 6%
inhibition at 0.1 µM (PDGFR BETA): 6%
inhibition at 0.1 µM (PDGFR_alpha): -4%
inhibition at 0.1 µM (PHKG2): -1%
inhibition at 0.1 µM (PKC-alpha): 16%
inhibition at 0.1 µM (PKC-epsilon): 1%
inhibition at 0.1 µM (PKD2): -7%
inhibition at 0.1 µM (PKG1-beta): -2%
inhibition at 0.1 µM (PYK2): -1%
inhibition at 0.1 µM (PhKg1): -2%
inhibition at 0.1 µM (ROS (ROS1)): 3%
inhibition at 0.1 µM (RSK2): -2%
inhibition at 0.1 µM (SGK1): 1%
inhibition at 0.1 µM (SYK): -2%
inhibition at 0.1 µM (TSSK1): -3%
inhibition at 0.1 µM (p38-gamma): -3%
